Experimental data from patent publication US11478474B2, “2-(3′-(hydroxymethyl)-1-methyl-5-((5-(2-methyl-4-(oxetan-3-yl)piperazin-1-yl)pyridin-2-yl)amino)-6-oxo-1,6-dihydro-[3,4′-bipyridin]-2′-yl)-7,7-dimethyl-7,8-dihydro-2H-cyclopenta[4,5]pyrrolo[1,2-a]pyrazin-1(6H)-one as a BTK inhibitor” (HUTCHISON MEDIPHARMA LIMITED, priority 2020, dated 2022).

Experiments:
BTK recombinant protein = BTK recombinant protein (Homo sapiens (Human), UniProt Q06187); assay: Determination of biochemical BTK (Z'-LYTE kinase assay)
BTK recombinant protein, sequence (Q06187 whole entry): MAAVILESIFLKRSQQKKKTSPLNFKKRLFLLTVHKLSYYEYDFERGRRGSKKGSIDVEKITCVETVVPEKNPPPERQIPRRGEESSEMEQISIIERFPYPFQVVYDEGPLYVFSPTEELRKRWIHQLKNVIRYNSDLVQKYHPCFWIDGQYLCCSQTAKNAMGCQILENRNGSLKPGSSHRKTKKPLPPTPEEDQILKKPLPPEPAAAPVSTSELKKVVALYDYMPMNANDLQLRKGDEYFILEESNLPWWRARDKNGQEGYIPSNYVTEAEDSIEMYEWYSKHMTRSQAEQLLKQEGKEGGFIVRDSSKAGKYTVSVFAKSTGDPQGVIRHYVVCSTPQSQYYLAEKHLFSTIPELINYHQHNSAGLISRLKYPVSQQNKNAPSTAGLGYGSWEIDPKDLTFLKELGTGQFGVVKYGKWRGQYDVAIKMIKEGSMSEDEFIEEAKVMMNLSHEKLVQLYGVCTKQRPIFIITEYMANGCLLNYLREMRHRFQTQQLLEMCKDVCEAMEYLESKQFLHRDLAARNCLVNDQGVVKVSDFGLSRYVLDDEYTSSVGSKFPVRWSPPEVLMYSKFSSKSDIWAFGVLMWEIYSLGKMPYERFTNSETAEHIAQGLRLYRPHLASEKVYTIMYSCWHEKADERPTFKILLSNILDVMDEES
From the text: Example 2 Determination of Biochemical BTK
(§1) 1. Reagents and Materials
BTK recombinant protein: Invitrogen, Cat #PV3363;
Z′-LYTE® kinase test kit-tyrosine 1 peptide: Invitrogen, Cat #PV3190;
Z′-LYTE® biochemical assay employs a fluorescence resonance energy transfer (FRET)—based, coupled-enzyme format and is based on the differential sensitivity of phosphorylated and non-phosphorylated peptides to proteolytic cleavage. Both ends of the short peptide substrate are labeled with two fluorescent groups to form a FRET paired combination. In the primary reaction (the Kinase Reaction), the kinase transfers the γ-phosphate of ATP to a single […] residue on the short peptide substrate. In the secondary reaction (the development reaction), the non-phosphorylated short peptides were recognized and cleaved by a site-specific protease (the development reagent). Phosphorylated short peptides can resist such cleavage. Cleavage of short peptides can disrupt the donor (such as coumarin) and receptor fluorophores (fluorescein) on the short peptides, while the phosphorylated short peptides can maintain FRET. The calculation method of the ratio is as follows, and the ratio of the respective emission signals generated by the donor fluorophores emitted (after excitation at 400 nm) to the receptors is calculated. Emission signal ratio=emitted light by coumarin (445 nm)/emitted light by fluorescein (520 nm). If the FRET short peptide is phosphorylated (such as no kinase inhibitor), the emitted light ratio will remain in a lower level. If the FRET short peptide is non-phosphorylated (such as kinase inhibitor), the emitted light ratio will be in a higher level. In this way, the inhibitory effects of different compound inhibitors on BTK kinase activity would be distinguished.
The experiment were carried out according to the instructions of the Z′-LYTE® kinase test kit-tyrosine 1 peptide. Reagent preparation: 1.33× kinase buffer: 5× kinase buffer was diluted with water to 1.33× kinase buffer; an enzyme solution: the kinase was dissolved in 1.33× kinase buffer with the final working concentration being 3.32 nM; a short peptide solution: a short peptide stock solution (1 mM dissolved in DMSO) was dissolved in 1.33× kinase buffer with the final working concentration being 2 μM; Z′-LYTE Tyr01 phosphorylated short peptide solution, 0.6 μl of stock solution (1 mM dissolved in DMSO) was dissolved in 149.4 μl of 1.33× kinase buffer; an ATP solution: an ATP stock solution (10 mM aqueous solution) was dissolved in 1.33× kinase buffer with the final working concentration being 32 μM; a color-developing solution: color-developing solution B was dissolved in color-developing buffer with the final working concentration being 1× color-developing solution; 4× compound preparation: the compound was diluted in 3-fold gradient concentration to finally obtain 4% DMSO aqueous solution containing different concentrations of the compound, with the final working concentration being 3000, 1000, 333.33, 111.11, 37.04, 12.35, 4.12, 1.37 nM, 8 concentration points in total.
Specific steps of the experiment: In the experiment, there were three control groups, each with 8 replicate wells, which were C1 100% inhibition group (no ATP), C2 0% inhibition group (with ATP), and C3 100% phosphorylation group, respectively. 2.5 μl of serially diluted compound was added to each well of a 384-well plate, with double replicate wells, and 4% DMSO solution was added to wells C1, C2, and C3. After that, except for wells C3, 2.5 μl of BTK enzyme solution was added to each remaining well, which was left to stand at 4° C. for 30 minutes. After that, except for wells C3, 2.5 μl of short peptide solution was added to each well, and 5 μl of phosphorylated short peptide solution was added to each of wells C3. 2.5 μl of 1.33× kinase buffer was added to each of wells C1 and C3, and 2.5 μl of ATP solution was added to each of the remaining wells. […]

[1] = biological target: phosphorylated BTK in Ramos cells (Homo sapiens (Human), UniProt Q06187); assay: Determination of phosphorylated BTK in Ramos cells (BTK phospho-Y223 HTRF); format: cell-based; details: anti-human IgM + hydrogen peroxide stimulation
phosphorylated BTK in Ramos cells, sequence (Q06187 whole entry): as above
Description: Determination of Phosphorylated BTK in Ramos Cells
as §1
Ramos cells: Ramos cells were purchased from American Standard Biological Collection Center ATCC Cell Bank, PRMI 1640 medium containing L-glutamine, 1.5 g/L of sodium bicarbonate, 2.383 g/L of HEPES solution, 0.11 g/L of sodium pyruvate and 4.5 g/L of glucose was used, added 10% fetal bovine serum FBS, and placed in a 5% CO2, 37° C. cell incubator for normal culture;
Phosphorylated BTK HTRF detection kit (BTK phospho-Y223 HTRF kit): Cisbio, Cat #63ADK017PEH;
Ramos cells were starved in PRMI 1640 medium with 1% FBS for 2 hours. The starved Ramos cells were diluted with Hank's balanced salt solution to 5.0×10^6 cells/ml, seeded in a 96-well plate with 20 μL/well (1.0×10^5 cells/well), and cultured in a 5% CO2, 37° C. cell incubator. After culturing for 1 hour, the test compound was diluted with Hank's balanced salt solution in 4-fold gradient to the corresponding concentrations, and then 5 μL/well of the diluted test compound with different concentrations (the final concentrations of the test compound were 3.0, 0.75, 0.188, 0.047, 0.012, 0.0029, 0.0007 and 0.00018 μM, and the final concentration of DMSO was 0.3%, double replicate wells) or 5 μL/well of control solution (1.5% DMSO, 8 replicate wells) were added to 20 μL/well of cell culture system, which incubated together for another hour, then 5 μL/well of a mixed solution of human immunoglobulin M (final concentration was 10 μg/mL) and hydrogen peroxide (final concentration was 3.3 mM) diluted with Hank's balanced salt solution was added to the treating wells for the test compound and the control treating wells for anti-human immunoglobulin M, and 5 μL/well of Hank's balanced salt solution was added to negative control treating wells. The plate was incubated in a 5% CO2, 37° C. cell incubator for 10 minutes.
10 μL/well of cell lysis buffer was added to each well of a 96-well plate, which was mixed well and lysed at room temperature for 30 minutes. 16 μL/well of lysis buffer was pipetted to a new 384 well plate, and then added 4 μL/well of phosphorylated BTK antibody, centrifuged (1000 rpm) for 1 minute, then shaken for 1 minute, further centrifuged (1000 rpm) for 1 minute, and finally placed in a constant temperature incubator overnight. Detection was performed on the next day.
The 384 well plate incubated overnight in the constant temperature incubator was taken out to detect the luminescence signal using the Envision microwell plate reader at the […]. The reading value at 665 nm/615 nm of each well multiplied by 104 was used as the signal value of each well.
The average signal value of the wells supplemented with the mixed solution of human immunoglobulin M (final concentration was 10 μg/mL) and hydrogen peroxide (final concentration was 3.3 mM) without the test compound was regarded as the high value, and the average signal value of the wells without immunoglobulin M stimulation and without the test compound was regarded as the low value. According to the signal value in each well, the inhibition ratio (%) of each concentration of compounds was calculated, and the 205 model in XL-Fit 5.3 software (ID Business Solutions Limited) was used to obtain an IC50 value.
The inhibition ratio is calculated as follows: inhibition ratio (%)=100%−{(treating well for the test compound−negative control treating well)/(control treating well for anti-human immunoglobulin M−negative control treating well)}×100%, wherein,
Treating well for the test compound: represents the signal value of Ramos cells treated with anti-human immunoglobulin M, hydrogen peroxide and the test compound.
Control treating well for anti-human immunoglobulin M: represents the signal value of Ramos cells treated with anti-human immunoglobulin M, hydrogen peroxide but without the test compound. […]

C[C@H]1CN(C2COC2)CCN1c1ccc(Nc2cc(-c3ccnc(-n4ccn5c6c(cc5c4=O)CC(C)(C)C6O)c3CO)cn(C)c2=O)nc1 (mixture of isomers) [Compound 182]
IC50 (BTK recombinant protein): 8 nM
IC50 [1]: 34 nM

CC1CCc2c(cc3c(=O)n(-c4nccc(-c5cc(Nc6ccc(N7CCN(C8COC8)C[C@@H]7C)cn6)c(=O)n(C)c5)c4CO)ccn23)C1 (mixture of isomers) [Compound 187]
IC50 (BTK recombinant protein): 14 nM
IC50 [1]: 28 nM

[2H]C(O)c1c(-c2cc(Nc3ccc(N4CCN(C5([2H])COC5)C[C@@H]4C)cn3)c(=O)n(C)c2)ccnc1-n1ccn2c3c(cc2c1=O)CC(C)(C)C3 (mixture of isomers) [Compound 101]
IC50 (BTK recombinant protein): 6 nM
IC50 [1]: 2 nM

COCCN1CCn2nc(Nc3cc(-c4ccnc(-n5ncn6c7c(cc6c5=O)CC(C)(C)C7)c4CO)cn(C)c3=O)cc2C1C (racemic) [Compound 110, (RS)-2-(3′-(hydroxymethyl)-5-((5-(2-methoxyethyl)-4-methyl-4,5,6,7-tetrahydropyrazolo[1,5-a]pyrazin-2-yl)amido)-1-methyl-6-oxo-1,6-dihydro-[3,4′-bispyridin]-2′-yl)-7,7-dimethyl-7,8-dihydro-2H-cyclopenta[4,5]pyrrolo[1,2-d][1,2,4]triazin-1(6H)-one]
IC50 (BTK recombinant protein): 2 nM
IC50 [1]: 2 nM

COCCN1CCn2nc(Nc3cc(-c4ccnc(-n5nc(C)n6c7c(cc6c5=O)CC(C)(C)C7)c4CO)cn(C)c3=O)cc2C1C (racemic) [Compound 121]
IC50 (BTK recombinant protein): 23 nM
IC50 [1]: 21 nM

CC(O)CN(CCNc1ccc(Nc2cc(-c3ccnc(-n4ccn5c6c(cc5c4=O)CC(C)(C)C6)c3CO)cn(C)c2=O)nc1)C1COC1 (racemic) [Compound 179]
IC50 (BTK recombinant protein): 19 nM
IC50 [1]: 70 nM

COCC(C)N1CCN(c2ccc(Nc3cc(-c4ccnc(-n5ncn6c7c(cc6c5=O)CC(C)(C)C7)c4CO)cn(C)c3=O)nc2)[C@@H](C)C1 (mixture of isomers) [Compound 219]
IC50 (BTK recombinant protein): 4 nM
IC50 [1]: 11 nM

C[C@H]1CN2CCOCC2CN1c1ccc(Nc2cc(-c3ccnc(-n4ccn5c6c(cc5c4=O)CC(C)(C)C6)c3CO)cn(C)c2=O)nc1 (mixture of isomers) [Compound 236]
IC50 (BTK recombinant protein): 24 nM
IC50 [1]: 4 nM

CCN(CCOC)c1ccc(Nc2cc(-c3ccnc(-n4ccn5c6c(cc5c4=O)CC(C)(C)C6)c3CO)cn(C)c2=O)nc1 [Compound 1, 2-(5-((5-(ethyl (2-methoxyethyl)amino)pyridin-2-yl)amino)-3′-(hydroxymethyl)-1-methyl-6-oxo-1,6-dihydro-[3,4′-bispyridin]-2′-yl)-7,7-dimethyl-7,8-dihydro-2H-cyclopenta[4,5]pyrrolo[1,2-a]pyrazin-1(6H)-one]
IC50 (BTK recombinant protein): 35 nM
IC50 [1]: 5 nM

CCn1cc(Nc2nc(-c3ccnc(-n4ccn5c6c(cc5c4=O)CC(C)(C)C6)c3CO)cn(C)c2=O)nn1 [Compound 3]
IC50 (BTK recombinant protein): 224 nM
IC50 [1]: 339 nM

CC(C)n1cc(Nc2nc(-c3ccnc(-n4ccn5c6c(cc5c4=O)CC(C)(C)C6)c3CO)cn(C)c2=O)nn1 [Compound 4]
IC50 (BTK recombinant protein): 756 nM
IC50 [1]: 480 nM

CC(C)n1cc(Nc2cc(-c3ccnc(-n4ccn5c6c(cc5c4=O)CC(C)(C)C6)c3CO)cn(C)c2=O)nn1 [Compound 6]
IC50 (BTK recombinant protein): 2 nM
IC50 [1]: 2 nM

CC(C)n1cc(Nc2cc(-c3ccnc(-n4ccn5c6c(cc5c4=O)CC(C)(C)C6)c3CO)nn(C)c2=O)nn1 [Compound 7]
IC50 (BTK recombinant protein): < 1 nM
IC50 [1]: 3 nM

C[C@H]1COCCN1c1ccc(Nc2cc(-c3ccnc(-n4ccn5c6c(cc5c4=O)CC(C)(C)C6)c3CO)cn(C)c2=O)nc1 [Compound 10]
IC50 (BTK recombinant protein): 18 nM
IC50 [1]: 10 nM

Cc1c(-c2ccnc(-n3ccn4c5c(cc4c3=O)CC(C)(C)C5)c2CO)cc(Nc2ccc(N3CCN(C4COC4)C[C@@H]3C)cn2)c(=O)n1C [Compound 11]
IC50 (BTK recombinant protein): 106 nM
IC50 [1]: 155 nM

Cc1c(-c2cc(Nc3ccc(N4CCN(C5COC5)C[C@@H]4C)cn3)c(=O)n(C)c2)ccnc1-n1ccn2c3c(cc2c1=O)CC(C)(C)C3 [Compound 12]
IC50 (BTK recombinant protein): 230 nM
IC50 [1]: 13 nM

CCn1nc(-c2ccnc(-n3ccn4c5c(cc4c3=O)CC(C)(C)C5)c2CO)cc(Nc2ccc(N3CCN(C4COC4)C[C@@H]3C)cn2)c1=O [Compound 14]
IC50 (BTK recombinant protein): 51 nM
IC50 [1]: 14 nM

CN1CCn2nc(Nc3cc(-c4ccnc(-n5ccn6c7c(cc6c5=O)CC(C)(C)C7)c4CO)cn(C)c3=O)cc2C1=O [Compound 15]
IC50 (BTK recombinant protein): 17 nM
IC50 [1]: 12 nM

CC(C)n1cc(Nc2cc(-c3ccnc(-n4ccn5c6c(cc5c4=O)CC(C)(C)C6)c3CO)cn3ncnc23)nn1 [Compound 18]
IC50 (BTK recombinant protein): 4 nM
IC50 [1]: 4 nM

Cn1cc(Nc2cc(-c3ccnc(-n4ccn5c6c(cc5c4=O)CC(C)(C)C6)c3CO)nn(C)c2=O)nn1 [Compound 29]
IC50 (BTK recombinant protein): 8 nM
IC50 [1]: 30 nM

Cn1cc(-c2ccnc(-n3ccn4c5c(cc4c3=O)CC(C)(C)C5)c2CO)cc(Nc2cn(CC(F)(F)F)nn2)c1=O [Compound 30]
IC50 (BTK recombinant protein): 9 nM
IC50 [1]: 8 nM

Cn1nc(-c2ccnc(-n3ccn4c5c(cc4c3=O)CC(C)(C)C5)c2CO)cc(Nc2cn(CCF)nn2)c1=O [Compound 32]
IC50 (BTK recombinant protein): 17 nM
IC50 [1]: 30 nM

Cn1nc(-c2ccnc(-n3ccn4c5c(cc4c3=O)CC(C)(C)C5)c2CO)cc(Nc2cn(CC(F)(F)F)nn2)c1=O [Compound 33]
IC50 (BTK recombinant protein): 25 nM
IC50 [1]: 26 nM
